Among the data in ChEMBL document CHEMBL1145110, “Oxidosqualene cyclase inhibitors as antimicrobial agents” (J Med Chem, 2003) are EC50, inhibition and IC50 values, retold here.

Assay [1] relates to Trypanosoma cruzi. Description: Tested for inhibition of growth Trypanosoma cruzi in a pathogen cell culture assay. The class given is functional. As to conditions: read-out: ED50 (the source's name).
For assay [2], the system named is Pneumocystis carinii. Description: Tested for inhibition of growth Pneumocystis carinii in a pathogen cell culture assay, at a concentration of 10 uM. Type of assay: functional.
Assay [3] deals with Toxoplasma gondii. Description: Tested for inhibition of growth Toxoplasma gondii in a pathogen cell culture assay, at a concentration of 10 uM. The class given is functional.
For assay [4], the system named is Leishmania mexicana. Description: Tested for inhibition of growth Leishmania mexicana in a pathogen cell culture assay. To be noted: read-out: ED50 (the source's name). The class given is functional.
A further assay deals with NIH3T3. Description: Tested for inhibition of growth of NIH3T3 cells a in a pathogen cell culture assay. Type of assay: functional. To be noted: Mus musculus, read-out: ED50 (the source's name).
For assay [5], the system named is Trypanosoma brucei. Description: Tested for inhibition of growth Trypanosoma brucei in a pathogen cell culture assay. The class given is functional. To be noted: read-out: ED50 (the source's name).
A further assay concerns the target T1, Lanosterol synthase (Rattus norvegicus, UniProt P48450).
T1 sequence (P48450 whole entry): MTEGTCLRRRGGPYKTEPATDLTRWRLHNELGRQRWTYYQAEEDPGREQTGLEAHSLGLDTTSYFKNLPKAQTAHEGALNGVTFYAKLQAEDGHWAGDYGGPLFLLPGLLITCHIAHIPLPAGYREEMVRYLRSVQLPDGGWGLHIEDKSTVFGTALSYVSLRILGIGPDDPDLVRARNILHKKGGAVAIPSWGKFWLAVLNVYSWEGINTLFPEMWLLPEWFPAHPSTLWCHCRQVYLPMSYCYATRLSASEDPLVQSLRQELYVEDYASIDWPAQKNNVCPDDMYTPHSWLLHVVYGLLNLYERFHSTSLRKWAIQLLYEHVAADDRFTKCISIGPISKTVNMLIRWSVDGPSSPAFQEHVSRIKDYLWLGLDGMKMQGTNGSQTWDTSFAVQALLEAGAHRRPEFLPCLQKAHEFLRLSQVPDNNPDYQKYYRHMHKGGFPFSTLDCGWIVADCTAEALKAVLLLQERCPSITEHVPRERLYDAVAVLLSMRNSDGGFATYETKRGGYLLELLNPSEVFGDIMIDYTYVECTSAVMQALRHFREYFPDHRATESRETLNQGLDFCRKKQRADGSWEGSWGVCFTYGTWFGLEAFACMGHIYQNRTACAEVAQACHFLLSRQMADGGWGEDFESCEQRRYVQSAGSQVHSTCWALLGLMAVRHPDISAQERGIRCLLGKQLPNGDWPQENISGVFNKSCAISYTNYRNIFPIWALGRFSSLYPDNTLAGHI
Description: Tested for Oxidosqualene-lanosterol cyclase inhibition in rat.

The subject of assay [6] is Leishmania mexicana. Description: Tested for inhibition of growth of Leishmania mexicana in a pathogen cell culture assay. The class given is functional. As to conditions: read-out: ED50 (the source's name).
The test system of assay [7] is Toxoplasma gondii. Description: Tested for inhibition of growth of Toxoplasma gondii in a pathogen cell culture assay, at a concentration of 10 uM. Type of assay: functional.
The subject of assay [8] is Trypanosoma brucei. Description: Tested for inhibition of growth of Trypanosoma brucei in a pathogen cell culture assay. Type of assay: functional. As to conditions: read-out: ED50 (the source's name).
Assay [9] concerns Trypanosoma cruzi. Description: Tested for inhibition of growth of Trypanosoma cruzi in a pathogen cell culture assay. The class given is functional. To be noted: read-out: ED50 (the source's name).
For assay [10], the system named is Pneumocystis carinii. Description: Tested for inhibition of growth of Pneumocystis carinii in a pathogen cell culture assay, at a concentration of 10 uM. The class given is functional.

Some results are limits rather than exact numbers.

With `OCCN1CCN(CCOc2ccc(-c3ccccc3)cc2)CC1`, the EC50 in the assay with Trypanosoma cruzi [1] is 1000 nM; in the assay with Leishmania mexicana [4], 400 nM; in the assay with NIH3T3, greater than 10000 nM; in the assay with Trypanosoma brucei [5] it was greater than 10000 nM. Further, the inhibition (as a rule, the share of the control response that was lost under treatment) at 10 µM in the assay with Pneumocystis carinii [2] was found to be 95%; in the assay with Toxoplasma gondii [3] it was 28%.
On to `C=CCN(C)CCCCCCOc1ccc(C(=O)c2ccc(Cl)cc2)c(F)c1`, for which, at Lanosterol synthase, half-maximal inhibition (IC50) was put at 49 nM.
For `O=C(c1ccc(Cl)cc1)c1ccc(OCCN2CCN(CCO)CC2)cc1`, the EC50 with Trypanosoma cruzi [1] was 1000 nM; with Leishmania mexicana [4], 400 nM; in the assay with NIH3T3, greater than 10000 nM; in the assay on Trypanosoma brucei [5], greater than 10000 nM. For the same compound, the inhibition at 10 µM with Pneumocystis carinii [2] is 95%; in the assay with Toxoplasma gondii [3] it was 28%.
Take `O=C(c1ccc(Cl)cc1)c1ccc(OC2CN3CCC2CC3)cc1` (centres undefined): the EC50 was 400 nM with Leishmania mexicana [6], greater than 10000 nM in the assay with NIH3T3, greater than 10000 nM in the assay on Trypanosoma brucei [8] and 1000 nM in the assay on Trypanosoma cruzi [9]. In addition, the IC50 (in general, the concentration that gives 50% inhibition) at Lanosterol synthase amounted to 160 nM. The figures for the inhibition at 10 µM in the assay with Toxoplasma gondii [7] and with Pneumocystis carinii [10] were 48% and 81%, respectively.
Turning to `CN(C)CCCOc1ccc(-c2ccccc2)cc1`, the EC50 in the assay with Trypanosoma cruzi [1] is 1000 nM; in the assay on Leishmania mexicana [4], 400 nM; in the assay on NIH3T3 it was greater than 10000 nM; in the assay with Trypanosoma brucei [5], greater than 10000 nM. Besides, the results for the inhibition at 10 µM in the assay on Pneumocystis carinii [2] and in the assay with Toxoplasma gondii [3] were 95% and 17%, respectively. The IC50 at Lanosterol synthase came to 2500 nM.
Regarding `CCN(CC)CCOc1ccc(-c2ccccc2)cc1`, the EC50 was greater than 10000 nM in the assay on Trypanosoma cruzi [1], 10000 nM in the assay with Leishmania mexicana [4], greater than 10000 nM in the assay with NIH3T3 and greater than 10000 nM with Trypanosoma brucei [5]. The inhibition at 10 µM with Pneumocystis carinii [2] is 95%; in the assay on Toxoplasma gondii [3], less than 1%.
On to `CN(C)CCCOc1ccc(C(=O)c2ccc(Cl)cc2)cc1`, for which the EC50 with Trypanosoma cruzi [1] was 1000 nM; with Leishmania mexicana [4], 400 nM; in the assay on NIH3T3, greater than 10000 nM; in the assay with Trypanosoma brucei [5], greater than 10000 nM. The inhibition at 10 µM was 95% with Pneumocystis carinii [2] and 17% in the assay with Toxoplasma gondii [3].
